6 substances from patent publication US4929718A, “Synthetic noxiustoxin related peptides” (Universidad Nacional Autonoma De Mexico, priority 1987, dated 1990) can be followed below.

The test system of one data set is BALB/c mice. As to conditions: BALB/c mice immunized for two months, immunodiffusion against NTX 1-39 coupled to MSA, FIG. 3. The source says:
A group of ten mice were immunized with each peptide and a second group of mice were immunized with each peptide coupled to mouse serum albumin as a carrier molecule.

In a further data set the test system is potassium channel. As to the kind of experiment: voltage-clamp study of potassium channel blockade in dorsal root ganglion cells. Format: cell-based. To be noted: concentrations of up to 100 micromolar, chick embryo dorsal root ganglion cells. The source says:
(§1) The mechanism of action of all synthetic peptides was verified by three independent essays: "in vivo" challenge by injection of albino mice (strain CD1) with different amounts of synthetic peptides; liberation of radioactive (tritiated) gamma-amino-butyric acid from mouse brain synaptosomes; and confirmation of the results with electrophysiological experiments, through voltage-clamp technique, in chick embryo dorsal root ganglion cells maintained in "in vitro" culture.

The next data set relates to albino mice (strain CD1). The data set is described as follows: "in vivo" challenge / lethality tests of synthetic peptides by injection of mice. As to conditions: for lethality test outcome: mouse, in vivo.
Another data set relates to mouse brain synaptosomes. As to the kind of experiment: release of tritiated GABA from mouse brain synaptosomes. Format: cell-based. As to conditions: for effect on GABA (neurotransmitter) release: mouse brain synaptosomes preloaded with 3H-GABA, FIG. 2.
Text: as §1
In the experiments involving release of neurotransmitters, mouse brain synaptosomes were preloaded with radioactive gamma-amino-butyric acid (2, 3, 3H-GABA) and were placed in Millipore filters ([…]) in perfusion chambers, each one containing 0.2 to 0.3 mg. of synaptosomal protein. The fractions from the perfusate (0.5 ml. each) were collected by means of a peristaltic pump at one minute intervals. After 6 minutes, a solution containing synthetic polypeptides was added to the experimental chambers and the radioactivity release was counted in an apparatus for measuring radioisotopes. […] The liberation of GABA per minute is expressed as a percentage of the total radioactivity present in the synaptosomes at the beginning of the experiment.

The test system of data set [1] is mice challenged with Noxiustoxin. As to conditions: challenge with effective lethal dose of Noxiustoxin (150 g per mouse).
Setting [2] is: dose 200 g (so in the source), intraventricularly.

Ends that are not written are not given here.

As for “Methionine-Asparagine-Glycine-Lysine-Cysteine-Lysine-Cysteine-Tyrosine-Asparagine-Asparagine [NTX 30-39]”, in the data set on BALB/c mice, the immunogenicity result was “immunogenic”. In addition, the “change in the potassium currents” value with potassium channel was “no change”.
On to “TIINVKCTS [NTX 1-9, Threonine-Isoleucine-Isoleucine-Asparagine-Valine-Lysine-Cysteine-Threonine-Serine]”, for which, in the data set on albino mice (strain CD1) (dose 100 g (so in the source), intraventricularly), the time to death is at most 20 h. Further, in the data set with albino mice (strain CD1) (setting [2]), the time to convulsions was at most 12 min and the time to death was below 0.333 h.
With “Threonine-Isoleucine-Isoleucine-Asparagine-Valine-Lysine-Cysteine-Threonine-Serine-Proline-Lysine-Glutamine-Cysteine-Serine-Lysine-Proline-Cysteine-Lysine-Glutamic Acid-Leucine [NTX 1-20]”, the “effect on GABA (neurotransmitter) release” value with mouse brain synaptosomes is on record as “increases neurotransmitter release”.
Take “Threonine-Isoleucine-Isoleucine-Asparagine-Valine-Lysine-Cysteine-Threonine-Serine-Proline-Lysine-Glutamine-Cysteine-Serine-Lysine-Proline-Cysteine-Lysine-Glutamic Acid-Leucine-Tyrosine-Glycine-Serine-Serine-Alanine-Glycine-Alanine-Lysine-Cysteine-Methionine-Asparagine-Glycine-Lysine-Cysteine-Lysine-Cysteine-Tyrosine-Asparagine-Asparagine [NTX 1-39]”: the “survival of immunized population” value in data set [1] is “more than 75%”. In the data set on BALB/c mice, the immunogenicity result was “immunogenic”. Besides, in the data set on mouse brain synaptosomes (excitable membranes such as brain synaptosomes), the “blockade of potassium permeability / potassium channels” value is listed as “blocks potassium permeability”.
On to “Tyrosine-Glycine-Serine-Serine-Alanine-Glycine-Alanine-Lysine-Cysteine-Methionine-Asparagine-Glycine-Lysine-Cysteine-Lysine-Cysteine-Tyrosine-Asparagine-Asparagine [NTX 21-39]”, for which the immunogenicity result in the data set on BALB/c mice was “immunogenic”.
Take “Noxiustoxin (TIINVKCTSPKQCSKPCKELYGSSAGAKCMNGKCKCYNN; UniProt P08815 1-39, looked up) [Native NTX]”: the “intoxication symptoms and outcome” value in the data set on albino mice (strain CD1) (dose of 40 g per 20 grams of mouse body weight) was “generally produces death”. Besides, the lethality test outcome in the data set on albino mice (strain CD1), with albino mice (strain CD1) (ip) and in the data set with albino mice (strain CD1) (sc) was “Toxic” throughout. Further, the “effect on GABA (neurotransmitter) release” value in the data set with mouse brain synaptosomes was “increases neurotransmitter release”.
